Results: patent publication US20240197715A1, “PHARMACEUTICAL COMBINATIONS AND USES THEREOF” (NOVARTIS AG, priority 2022, published 2024)
pIC50: −log10 of the molar value.

What was measured:
SW48 [1] = assay: CellTiterGlo in vitro viability, 4-day treatment, SW48; assay type: cell-based
From the text: (§1) Growth inhibition %: 0-99=delayed proliferation, 100=growth arrest/stasis, 101-200=reduction in cell number/cell death.

HCT116 = assay: CellTiterGlo in vitro viability, 4-day treatment, HCT116; assay type: cell-based
From the text: as §1

WRN = WRN (Homo sapiens, UniProt Q14191); assay: WRN ATPase activity assay; assay type: biochemical; conditions: assay of WO2022/249060
From the text: (§2) According to the assays disclosed in the application PCT/IB2022/054850 published as WO2022/249060, which is hereby incorporated by reference, the compounds were active as shown in Table X

SW48 [2] = assay: Proliferation assay SW48; assay type: cell-based; conditions: Homo sapiens, assay of WO2022/249060
From the text: as §2

DLD1-WRN-KO = assay: Proliferation assay DLD1-WRN-KO; assay type: cell-based; conditions: assay of WO2022/249060
From the text: as §2

[3] = test system: SW48 colorectal carcinoma cells; assay: SW48 xenograft efficacy in nude mice; assay type: in vivo; conditions: Example 12; trametinib 0.3 mg/kg p.o. qd; BRAF WT SW48
Description: All animals were allowed to adapt for 7 days and housed in a pathogen-controlled environment (5 mice/Type III cage) with access to food and water ad libitum and were identified with transponders.
5.0×10^6 SW48 colorectal carcinoma cells were implanted subcutaneously in nude mice (Charles River, Germany). Treatment was initiated when tumors reached 150-200 mm^3 volume. Efficacy studies and tumor response were measured as above.

Sequence of WRN (Q14191 whole entry): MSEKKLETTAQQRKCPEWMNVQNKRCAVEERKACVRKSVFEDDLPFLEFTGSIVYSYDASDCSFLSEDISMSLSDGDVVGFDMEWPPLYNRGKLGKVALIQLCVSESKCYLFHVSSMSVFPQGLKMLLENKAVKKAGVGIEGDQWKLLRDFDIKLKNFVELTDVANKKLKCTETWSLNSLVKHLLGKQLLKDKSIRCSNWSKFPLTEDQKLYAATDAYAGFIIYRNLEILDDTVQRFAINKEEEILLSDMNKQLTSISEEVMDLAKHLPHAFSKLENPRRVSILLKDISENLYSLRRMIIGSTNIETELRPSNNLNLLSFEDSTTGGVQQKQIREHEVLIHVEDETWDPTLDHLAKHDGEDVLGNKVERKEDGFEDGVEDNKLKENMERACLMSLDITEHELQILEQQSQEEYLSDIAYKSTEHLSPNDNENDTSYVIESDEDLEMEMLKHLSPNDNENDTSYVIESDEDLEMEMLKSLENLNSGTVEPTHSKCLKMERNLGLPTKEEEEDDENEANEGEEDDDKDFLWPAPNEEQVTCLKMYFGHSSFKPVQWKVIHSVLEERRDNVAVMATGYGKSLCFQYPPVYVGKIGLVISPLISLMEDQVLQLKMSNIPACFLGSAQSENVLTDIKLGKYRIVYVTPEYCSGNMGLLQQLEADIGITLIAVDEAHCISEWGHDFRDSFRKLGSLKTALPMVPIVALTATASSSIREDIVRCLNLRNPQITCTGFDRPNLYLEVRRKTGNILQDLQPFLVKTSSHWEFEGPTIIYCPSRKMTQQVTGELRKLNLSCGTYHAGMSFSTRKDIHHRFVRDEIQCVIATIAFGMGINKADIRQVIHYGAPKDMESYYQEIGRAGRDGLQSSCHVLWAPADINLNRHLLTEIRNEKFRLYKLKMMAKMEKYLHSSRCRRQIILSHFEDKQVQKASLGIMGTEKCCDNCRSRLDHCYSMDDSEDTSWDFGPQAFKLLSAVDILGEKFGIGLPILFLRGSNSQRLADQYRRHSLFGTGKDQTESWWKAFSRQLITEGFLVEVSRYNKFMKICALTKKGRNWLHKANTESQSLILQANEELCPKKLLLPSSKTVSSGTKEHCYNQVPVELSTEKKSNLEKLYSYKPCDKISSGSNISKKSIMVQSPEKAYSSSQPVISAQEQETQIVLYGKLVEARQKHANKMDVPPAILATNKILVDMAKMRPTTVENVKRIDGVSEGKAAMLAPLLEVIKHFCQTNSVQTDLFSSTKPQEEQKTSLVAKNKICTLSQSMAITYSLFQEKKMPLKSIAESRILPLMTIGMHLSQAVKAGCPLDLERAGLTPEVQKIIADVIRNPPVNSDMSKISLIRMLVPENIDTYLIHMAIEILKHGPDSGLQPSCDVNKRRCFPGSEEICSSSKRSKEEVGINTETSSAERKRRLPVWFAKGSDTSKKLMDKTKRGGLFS

Compound | proliferation of SW48 cells, single agent (SW48 [1]) | other results
O=c1[nH]cc(F)c(=O)[nH]1 [5-fluorouracil] | inhibited | 
C[C@@]1(CO)[C@H](O)CC[C@@]2(C)[C@H]1CC[C@H]1C[C@@H]3C[C@@]12CC[C@]3(O)CO [Aphidicolin, aphidicolin] | inhibited | 
CC[C@@]1(O)C(=O)OCc2c1cc1n(c2=O)Cc2cc3ccccc3nc2-1 [Camptothecin, camptothecin] | inhibited | 
CCc1c(N2CCN(C(=O)c3ncccc3O)CC2)c(=O)n2nc(C3=CCOCC3)nc2n1CC(=O)Nc1ccc(C(F)(F)F)cc1C [Compound B] | inhibited | proliferation of HCT116 cells, single agent (HCT116): inhibited
COc1cccc2c1C(=O)c1c(O)c3c(c(O)c1C2=O)C[C@@](O)(C(=O)CO)C[C@@H]3O[C@H]1C[C@H](N)[C@H](O)[C@H](C)O1 [Doxorubicin, doxorubicin] | inhibited | proliferation of HCT116 cells, single agent (HCT116): inhibited
Nc1ccn([C@@H]2O[C@H](CO)[C@@H](O)C2(F)F)c(=O)n1 [Gemcitabin, gemcitabine] | inhibited | 
COc1ncc(-c2nc3c(n2C(C)C)[C@H](c2ccc(Cl)cc2)N(c2cc(Cl)cn(C)c2=O)C3=O)c(OC)n1 [HDM201] | to some extent | 
C[C@@H]1CN(CC(=O)Nc2ccc3c(c2)Cc2cccc(-c4cc(=O)cc(N5CCOCC5)o4)c2S3)C[C@H](C)O1 [KU-60019] | inhibited | 
O=c1cc(N2CCOCC2)oc2c(-c3cccc4c3sc3ccccc34)cccc12 [NU7441 (KU-57788)] | inhibited | 
CCc1nc2c(NC(C)(C)C)nc(Nc3ccc4nc(OCCN5CCOCC5)ccc4c3)nc2[nH]1 [QAP1] | inhibited | 
CCc1c(N2CCN(C(=O)c3ncccc3O)CC2)c(=O)n2nc(C3=CCN(C(=O)CCC(=O)N[C@H](C(=O)N4C[C@H](O)C[C@H]4C(=O)N[C@@H](C)c4ccc(-c5scnc5C)cc4)C(C)(C)C)CC3)nc2n1CC(=O)Nc1ccc(C(F)(F)F)cc1C [X, (2S,4R)-1-((S)-2-(4-(4-(5-ethyl-6-(4-(3-hydroxypicolinoyl)piperazin-1-yl)-4-(2-((2-methyl-4-(trifluoromethyl)phenyl)amino)-2-oxoethyl)-7-oxo-4,7-dihydro-[1,2,4]triazolo[1,5-a]pyrimidin-2-yl)-3,6-dihydropyridin-1(2H)-yl)-4-oxobutanamido)-3,3-dimethylbutanoyl)-4-hydroxy-N—((S)-1-(4-(4-methylthiazol-5-yl)phenyl)ethyl)pyrrolidine-2-carboxamide] |  | pIC50 (WRN): 6.80; GI50 (SW48 [2]): 3840 nM; GI50 (DLD1-WRN-KO): > 10000 nM
CCc1c(N2CCN(C(=O)c3ncccc3O)CC2)c(=O)n2nc(C3=CCN(C(=O)[C@H](CC(C)C)NC(=O)[C@@H](O)[C@H](N)Cc4ccccc4)CC3)nc2n1CC(=O)Nc1ccc(C(F)(F)F)cc1C [Y, (2S,3R)-3-amino-N—((S)-1-(4-(5-ethyl-6-(4-(3-hydroxypicolinoyl)piperazin-1-yl)-4-(2-((2-methyl-4-(trifluoromethyl)phenyl)amino)-2-oxoethyl)-7-oxo-4,7-dihydro-[1,2,4]triazolo[1,5-a]pyrimidin-2-yl)-3,6-dihydropyridin-1(2H)-yl)-4-methyl-1-oxopentan-2-yl)-2-hydroxy-4-phenylbutanamide] |  | pIC50 (WRN): 6.85; GI50 (SW48 [2]): 1190 nM; GI50 (DLD1-WRN-KO): > 10000 nM
CCc1c(N2CCN(C(=O)c3ncccc3O)CC2)c(=O)n2nc(C3=CCN(C(=O)CCCCCOc4ccc5c(c4)C(=O)N(C4CCC(=O)NC4=O)C5)CC3)nc2n1CC(=O)Nc1ccc(C(F)(F)F)cc1C (stereo not drawn) [Z, 2-(2-(1-(6-((2-(2,6-dioxopiperidin-3-yl)-3-oxoisoindolin-5-yl)oxy)hexanoyl)-1,2,3,6-tetrahydropyridin-4-yl)-5-ethyl-6-(4-(3-hydroxypicolinoyl)piperazin-1-yl)-7-oxo-[1,2,4]triazolo[1,5-a]pyrimidin-4(7H)-yl)-N-(2-methyl-4-(trifluoromethyl)phenyl)acetamide] |  | pIC50 (WRN): 7.05; GI50 (SW48 [2]): 1310 nM; GI50 (DLD1-WRN-KO): > 10000 nM
N.N.[Cl][Pt][Cl] [cisplatin] | inhibited | 
CC(=O)Nc1cccc(-n2c(=O)n(C3CC3)c(=O)c3c(Nc4ccc(I)cc4F)n(C)c(=O)c(C)c32)c1 [trametinib] |  | effect on tumor growth [3]: no effect
bleomycin | inhibited | 
